Experimental data reported in US20130172311A1, “Substituted heterocyclyl benzyl pyrazoles, and use thereof” (BAYER INTELLECTUAL PROPERTY GMBH, priority 2010, published 2013).

What was measured:
[1] = tested on: luciferase reporter under the control of an HIF-responsive sequence in HCT 116 cells; assay: HIF luciferase assay; assay type: cell-based; details: Homo sapiens; HCT 116 reporter cells, hypoxia chamber (1% O2), 24 h
Procedure: HCT 116 cells were stably transfected with a plasmid which contained a luciferase reporter under the control of an HIF-responsive sequence. These cells were sown in microtitre plates [20 000 cells/cavity in RPMI 1640 medium with 10% foetal calf serum (FCS) and 100 μg/ml of hygromycin]. They were incubated overnight under standard conditions (5% CO2, 21% O2, 37° C., moistened). The following morning the cells were incubated with different concentrations of the test substances (0-10 μmol/l) in a hypoxia chamber (1% O2). After 24 h, Bright Glo reagent (Promega, Wis., USA) was added in accordance with the manufacturer's instructions, and after 5 min the luminescence was measured. Cells which were incubated under normoxia served as background controls.

[2] = Pharmacokinetic parameters after peroral administration in rats; assay type: in vivo
Procedure: The substance to be examined was administered to animals (for example mice or rats) intravenously as a solution (for example in corresponding plasma with a small addition of DMSO or in a PEG/ethanol/water mixture), and peroral administration was effected as a solution (for example in Solutol/ethanol/water or PEG/ethanol/water mixtures) or as a suspension (e.g. in tylose), in each case via a gavage. After administration of the substance, blood was taken from the animals at fixed times. The blood was heparinized, then plasma was obtained therefrom by centrifugation. The substance was quantified analytically in the plasma via LC-MS/MS. From the plasma concentration/time plots determined in this way, using an internal standard and with the aid of a validated computer program, the pharmacokinetic parameters, such as AUC (area under the concentration/time curve), Cmax, (maximum plasma concentration), t1/2 (half life), VSS (distribution volume) and CL (clearance), and the absolute and relative bioavailability F and Frei (i.v./p.o. comparison or comparison of suspension to solution after p.o. administration), were calculated.
To determine the active ingredient release from a prodrug compound, the prodrug was administered either intravenously or perorally, as described above, and the concentrations both of the prodrug and of the active ingredient released were quantified in the processed plasma.
The substance to be examined was administered perorally to rats, in each case in amounts between 1 and 3 mg/kg as a solution in Solutol/ethanol/water (40:10:50 or 40:20:40). The kinetic parameters determined for Working Example 1 are shown below by way of example for the inventive compounds [AUCnorm=dose-normalized exposure (area under the concentration/time curve)]:
The second row in this table gives the pharmacokinetic parameters for Example 1, as obtained after peroral administration of the prodrug compound from Example 15 (1 mg/kg of crystalline substance as a tylose suspension in water).

[3] = pH-dependent hydrolysis stability; assay type: physicochemical; details: HPLC area %; for % Example 1 active ingredient: released from prodrug Example 15
Procedure: 0.3 mg of the test substance (prodrug) was weighed into a 2 ml HPLC vial, and 0.6 ml of acetonitrile or acetonitrile/DMSO mixture (with up to 20 percent by volume of DMSO) was added. To dissolve the substance, the sample vessel was placed into an ultrasound bath for approx. 10 seconds. Subsequently, 1.0 ml of the particular aqueous buffer solution was added (commercially available buffer solutions of pH 2, 4, 6.5, 8 and 10) and the sample was treated again in the ultrasound bath. Over a period of 24 hours at 37° C., 5 μl of the sample solution were analysed by HPLC every hour for its content of unchanged prodrug or active ingredient released therefrom by hydrolysis. Quantification was effected via the area percentages of the corresponding HPLC peaks.

[4] = Plasma stability in vitro, rat plasma; assay type: in vitro ADME; details: 37°C
Procedure: (§1) 1 mg of the test substance (prodrug) was weighed into a 2 ml HPLC vial, and 1.5 ml of DMSO and 1 ml of water were added. To dissolve the substance, the sample vessel was placed into an ultrasound bath for approx. 10 seconds. 0.5 ml of rat plasma or human plasma at 37° C. was added to 0.5 ml of this solution. The sample was agitated and approx. 10 μl were taken for a first analysis (time t0). […] The sample was kept at 37° C. over the test period. Characterization and quantification were effected by HPLC.

[5] = Plasma stability in vitro, human plasma; assay type: in vitro ADME; details: 37°C
Procedure: as §1

Q: With `Cc1cc(-c2nc(-c3ccc(C(C)(C)C(F)(F)F)cc3)no2)nn1Cc1cccc(N2CC(O)C2)c1` [Example 3, 1-{3-[(5-Methyl-3-{3-[4-(1,1,1-trifluoro-2-methylpropan-2-yl)phenyl]-1,2,4-oxadiazol-5-yl}-1H-pyrazol-1-yl)methyl]phenyl}azetidin-3-ol] as the compound, how does the IC50 [1] read?
A: The IC50 was 0.6 nM.

Q: With `Cc1cc(-c2nc(-c3ccc(C4(C(F)(F)F)CC4)cc3)no2)nn1Cc1cccc(N2CC(O)C2)c1` [Example 2, 1-(3-{[5-Methyl-3-(3-{4-[1-(trifluoromethyl)cyclopropyl]phenyl}-1,2,4-oxadiazol-5-yl)-1H-pyrazol-1-yl]methyl}phenyl)azetidin-3-ol] as the compound, how does the IC50 [1] read?
A: Its IC50 is 0.6 nM.

Q: With `Cc1cc(-c2nc(-c3ccc(SC(F)(F)F)cc3)no2)nn1Cc1cccc(N2CCC(O)CC2)c1` [Example 14, 1-(3-{[5-Methyl-3-(3-{4-[(trifluoromethyl)sulphanyl]phenyl}-1,2,4-oxadiazol-5-yl)-1H-pyrazol-1-yl]methyl}phenyl)piperidin-4-ol] as the compound, how does the IC50 [1] read?
A: The IC50 was 0.5 nM.

Q: For `Cc1cc(-c2nc(-c3ccc(C4(C(F)(F)F)CC4)cc3)no2)nn1Cc1cccc(N2CCC(C#N)CC2)c1` [Example 12, 1-(3-{[5-Methyl-3-(3-{4-[1-(trifluoromethyl)cyclopropyl]phenyl}-1,2,4-oxadiazol-5-yl)-1H-pyrazol-1-yl]methyl}phenyl)piperidine-4-carbonitrile], which IC50 [1] is on record?
A: Its IC50 is 0.3 nM.

Q: Which IC50 [1] does the source give for `Cc1cc(-c2nc(-c3ccc(C(C)(C)C(F)(F)F)cc3)no2)nn1Cc1cccc(N2CCC(C#N)CC2)c1` [Example 13, 1-{3-[(5-Methyl-3-{3-[4-(1,1,1-trifluoro-2-methylpropan-2-yl)phenyl]-1,2,4-oxadiazol-5-yl}-1H-pyrazol-1-yl)methyl]phenyl}piperidine-4-carbonitrile] here?
A: Its IC50 is 0.3 nM.

Q: With `Cc1cc(-c2nc(-c3ccc(OC(F)(F)F)cc3)no2)nn1Cc1cccc(N2CCC(O)CC2)c1` [Example 8, 1-{3-[(5-Methyl-3-{3-[4-(trifluoromethoxy)phenyl]-1,2,4-oxadiazol-5-yl}-1H-pyrazol-1-yl)methyl]phenyl}piperidin-4-ol] as the compound, how does the IC50 [1] read?
A: The IC50 was 0.6 nM.

Q: Which IC50 [1] does the source give for `Cc1cc(-c2nc(-c3ccc(OC(F)(F)F)cc3)no2)nn1Cc1cccc(N2CCC(C#N)CC2)c1` [Example 11, 1-{3-[(5-Methyl-3-{3-[4-(trifluoromethoxy)phenyl]-1,2,4-oxadiazol-5-yl}-1H-pyrazol-1-yl)methyl]phenyl}piperidine-4-carbonitrile] here?
A: Its IC50 is 0.4 nM.

Q: Which IC50 [1] does the source give for `Cc1cc(-c2nc(-c3ccc(C(C)(C)C(F)(F)F)cc3)no2)nn1Cc1cccc(N2CCC(O)CC2)c1` [Example 10, 1-{3-[(5-Methyl-3-{3-[4-(1,1,1-trifluoro-2-methylpropan-2-yl)phenyl]-1,2,4-oxadiazol-5-yl}-1H-pyrazol-1-yl)methyl]phenyl}piperidin-4-ol] here?
A: The IC50 was 0.4 nM.

Q: For `Cc1cc(-c2nc(-c3ccc(OC(F)(F)F)cc3)no2)nn1Cc1cccc(N2CC(O)C2)c1` [Example 1, 1-{3-[(5-Methyl-3-{3-[4-(trifluoromethoxy)phenyl]-1,2,4-oxadiazol-5-yl}-1H-pyrazol-1-yl)methyl]phenyl}azetidin-3-ol], which “AUCnorm (dose-normalized exposure)” value ([2]; p.o., 1-3 mg/kg, solution in Solutol/ethanol/water) is on record?
A: The value was 0.43 kg·h/L.

Q: What about the “AUCnorm of Example 1 after administration of prodrug Example 15” value ([2]; p.o., prodrug Example 15, 1 mg/kg crystalline substance as tylose suspension in water) of the same compound?
A: Its value is 0.35 kg·h/L.

Q: What about the bioavailability ([2]; rat, plasma, po, 1-3 mg/kg, solution in Solutol/ethanol/water, read-out: F (bioavailability)) of the same compound?
A: Its bioavailability is 68%.

Q: What about the IC50 [1] of the same compound?
A: Its IC50 is 0.7 nM.

Q: What about the “% Example 1 active ingredient” value ([3]; pH 2, 37°C, after 12 h) of the same compound?
A: The value was 6%.

Q: What about the “% Example 1 active ingredient” value ([3]; pH 4, 37°C, after 12 h) of the same compound?
A: Its value is 9%.

Q: What about the “% Example 1 active ingredient” value ([3]; pH 6.5, 37°C, 0 h) of the same compound?
A: The value was 3%.

Q: What about the “% Example 1 active ingredient” value ([3]; pH 6.5, 37°C, 2 h) of the same compound?
A: Its value is 7%.

Q: And the “% Example 1 active ingredient” value ([3]; pH 6.5, 37°C, 4 h)?
A: Its value is 10%.

Q: And the “% Example 1 active ingredient” value ([3]; pH 6.5, 37°C, 6 h)?
A: Its value is 13%.

Q: And the “% Example 1 active ingredient” value ([3]; pH 6.5, 37°C, 12 h)?
A: The value was 22%.

Q: What about the “% Example 1 active ingredient” value ([3]; pH 6.5, 37°C, 24 h) of the same compound?
A: Its value is 35%.

Q: And the “% Example 1 active ingredient” value ([3]; pH 8, 37°C, after 12 h)?
A: Its value is 30%.

Q: And the “% Example 1 active ingredient” value ([3]; pH 10, 37°C, after 12 h)?
A: Its value is 78%.

Q: With `Cc1cc(-c2nc(-c3ccc(C4(C(F)(F)F)CC4)cc3)no2)nn1Cc1cccc(N2CCC(O)CC2)c1` [Example 9, 1-(3-{[5-Methyl-3-(3-{4-[1-(trifluoromethyl)cyclopropyl]phenyl}-1,2,4-oxadiazol-5-yl)-1H-pyrazol-1-yl]methyl}phenyl)piperidin-4-ol] as the compound, how does the IC50 [1] read?
A: The IC50 was 0.5 nM.

Q: Which results are given for `Cc1cc(-c2nc(-c3ccc(OC(F)(F)F)cc3)no2)nn1Cc1cccc(N2CC(OC(=O)CN(C)C)C2)c1` [Example 15, 1-{3-[(5-Methyl-3-{3-[4-(trifluoromethoxy)phenyl]-1,2,4-oxadiazol-5-yl}-1H-pyrazol-1-yl)methyl]phenyl}azetidin-3-yl N,N-dimethylglycinate]?
A: % Example 15 prodrug ([4]; 0 h): 95%; % Example 15 prodrug ([4]; 0.5 h): 87%; % Example 15 prodrug ([4]; 1 h): 80%; % Example 15 prodrug ([4]; 1.5 h): 72%; % Example 15 prodrug ([4]; 2 h): 69%; % Example 15 prodrug ([4]; 4 h): 52%; % Example 15 prodrug ([5]; 0 h): 97%; % Example 15 prodrug ([5]; 0.5 h): 96%; % Example 15 prodrug ([5]; 1 h): 93%; % Example 15 prodrug ([5]; 1.5 h): 91%; % Example 15 prodrug ([5]; 2 h): 89%; % Example 15 prodrug ([5]; 4 h): 81%; prodrug compound in plasma ([2]; p.o., 1 mg/kg as tylose suspension, all times examined): not detectable; melting point: 117 °C; % Example 15 prodrug ([3]; pH 2, 37°C, after 12 h): 89%; % Example 15 prodrug ([3]; pH 4, 37°C, after 12 h): 89%; % Example 15 prodrug ([3]; pH 6.5, 37°C, 0 h): 94%; % Example 15 prodrug ([3]; pH 6.5, 37°C, 2 h): 91%; % Example 15 prodrug ([3]; pH 6.5, 37°C, 4 h): 87%; % Example 15 prodrug ([3]; pH 6.5, 37°C, 6 h): 84%; % Example 15 prodrug ([3]; pH 6.5, 37°C, 12 h): 73%; % Example 15 prodrug ([3]; pH 6.5, 37°C, 24 h): 56%; % Example 15 prodrug ([3]; pH 8, 37°C, after 12 h): 64%; % Example 15 prodrug ([3]; pH 10, 37°C, after 12 h): 0%
